Experimental data as given in patent publication US20240368115A1, “REGULATOR CONTAINING TRICYCLIC DERIVATIVE, PREPARATION METHOD THEREFOR AND APPLICATION THEREOF” (SHUJING BIOPHARMA CO., LTD, priority 2021, published 2024).
pEC50, pIC50: −log10 of the molar value. Where two headings read alike, the source gives them in different places.

Key:
[1] = Pharmacokinetic test in mice; format: in vivo; details: male, ICR, mouse, plasma, po, oral intragastric; for AUC(0-inf): read-out: AUC(0-inf); for Cmax: read-out: Cmax
Procedure: Male ICR mice were administered orally intragastrically, the plasma concentrations of the compounds of the present invention were measured in the mice, the PK parameters were calculated, and the pharmacokinetic evaluation was performed on the compounds of the present invention.
• (1) Test samples: the compounds of the examples of the present invention, self-made. • (2) Test animals: ICR mice, SPF grade, male, Xuzhou Medical University. • (3) Main test instruments:
Drug preparation: according to the weight of the weighed drug, the preparation volume was calculated. 5% of DMSO was added firstly. After the drug was fully dissolved, 95% of 20% aqueous PB-cyclodextrin solution was then added, and the mixture was mixed well for later use.
Administration route: oral intragastric administration. Frequency and duration of administration: single administration.
ICR mice were stratified according to body weight and then randomly divided into groups of 9 mice each, and the mice were fasted overnight prior to the test. The mice were separately administered orally intragastrically. 50 μL of blood was collected from the fundus vein of the mouse at 0 h, 0.083 h, 0.25 h, 0.5 h, 1 h, 2 h, 4 h, 8 h, 12 h, and 24 h (3 time points for each mouse) to a sample tube containing heparin sodium as an anticoagulant, and the tube was placed in wet ice and centrifuged at 4000 r·min^−1 for 10 min. The plasma was separated, and cryopreserved in a refrigerator at −80° C. for testing.
The concentrations of plasma samples were measured by high performance liquid chromatography-tandem mass spectrometry (LC-MS/MS). The retention times of the compounds and internal standard, chromatogram acquisitions, and integrals of chromatograms were processed using the software Analyst (AB SCIEX), and the data statistics were processed using the software Watson LIMS (Thermo Fisher Scientific) or Analyst (AB SCIEX). The concentration of plasma was processed using a non-compartmental model of the pharmacokinetic software WinNonlin™ Version 6.3 (Pharsight, Mountain View, CA), and pharmacokinetic parameters were calculated by a linear log-trapezoidal method.

[2] = biological target: 5-HT2A receptor (Homo sapiens, UniProt P28223); test: Calcium flux test for 5-HT2A receptor; format: cell-based; details: CHO cell strain stably expressing 5-HT2A receptor; for pIC50: calcium flux, antagonism of serotonin; for 5-HT2A Max Inh %: positive control ketanserin 10^−7 M
Procedure: • Fluo-4 calcium flux detection kit was purchased from Invitrogen; a CHO cell strain stably expressing 5-HT2A receptor was purchased from PerkinElmer; serotonin was purchased from Sigma; ketanserin was purchased from Targetmol; polylysine-coated 384-well plates and 384-well compound plates were purchased from Greiner Bio-One. Molecular Device FLIPR, Agilent Bravo liquid workstation, and Countstar BioTech cell counter.
• (1) The cryopreserved cells were rapidly thawed in a water bath at 37° C., and the cells were resuspended in a plating medium. The cryopreservation solution was removed by centrifugation at 200×g. The pellet was resuspended in an appropriate amount of plating medium, 20 μL of cell suspension was counted using a cell counter, and the cell density was diluted to 1×10^6 cells/mL. • (2) 20 μL of cell suspension was added to a polylysine-coated 384-well plate (2×10^4 cells/well). • (3) The cell plate was incubated in a 37° C./5% CO2 incubator for 16-20 h.
• (1) The cell plate was taken out from the incubator and centrifuged at 100×g to remove the medium. 20 μL of experimental buffer was added, and then 20 μL of 2× fluorescent probe solution was added. […] The cell plate and agonist positive compound plate were placed into the FLIPR instrument, the detection program was run, 10 μL of the diluted compound was transferred from the agonist compound plate to the cell plate, and the fluorescence signal was read. […] The cell plate and test compound plate were placed in the FLIPR instrument, the detection program was run, and 10 μL of the diluted compound was transferred from the test compound plate to the cell plate. […] The test compound plate was then taken out, and the agonist positive compound plate with 6×EC50 concentration was placed.
Inhibition rate (Inhibition %)=(negative control reading value−compound reading value)/(negative control reading value−positive control reading value)×100%

[3] = biological target: T1, D2S receptor (Homo sapiens, UniProt P14416); test: D2S receptor cAMP agonist test; format: cell-based; details: HEK293 cell strain stably expressing D2S receptor; for pEC50: cAMP, forskolin 5×10^−7 M; for D2S Max Act %: positive control dopamine 1×10^−7 M
T1 construct: expressed in transfected cells
Source text: (§1) cAMP detection kit was purchased from Cisbio; an HEK293 cell strain stably expressing D2S receptor was constructed by Shanghai Shujing Biopharma Co., Ltd.; dopamine, forskolin, and IBMX were purchased from Sigma; ProxiPlate-384 well plates were purchased from PerkinElmer; HBSS was purchased from Thermo Fisher Scientific.
(§2) • (1) The cultured cells were digested with trypsin, and the cell suspension was washed with HBSS buffer after the digestion was terminated. The medium was removed by centrifugation at 200×g. The pellet was resuspended in an appropriate amount of experimental buffer, and 20 μL of cell suspension was counted using a cell counter and diluted to 0.6×10^6 cells/mL. • (2) 5 μL of cell suspension was added to a ProxiPlate-384 well plate (3×10^3 cells/well). • (3) Test compounds were serially diluted in an experimental buffer, and 5 μL of the mixed solution was transferred to the reaction plate with Bravo.

[4] = biological target: T2, 5-HT1A receptor (Homo sapiens, UniProt P08908); test: 5-HT1A receptor cAMP agonist test; format: cell-based; details: HEK293 cell strain stably expressing 5-HT1A receptor; for pEC50: cAMP, forskolin 2.5×10^−7 M; for 5-HT1A Max Act %: positive control serotonin 10^−6 M
T2 construct: expressed in transfected cells
T2 sequence (P08908 1-422): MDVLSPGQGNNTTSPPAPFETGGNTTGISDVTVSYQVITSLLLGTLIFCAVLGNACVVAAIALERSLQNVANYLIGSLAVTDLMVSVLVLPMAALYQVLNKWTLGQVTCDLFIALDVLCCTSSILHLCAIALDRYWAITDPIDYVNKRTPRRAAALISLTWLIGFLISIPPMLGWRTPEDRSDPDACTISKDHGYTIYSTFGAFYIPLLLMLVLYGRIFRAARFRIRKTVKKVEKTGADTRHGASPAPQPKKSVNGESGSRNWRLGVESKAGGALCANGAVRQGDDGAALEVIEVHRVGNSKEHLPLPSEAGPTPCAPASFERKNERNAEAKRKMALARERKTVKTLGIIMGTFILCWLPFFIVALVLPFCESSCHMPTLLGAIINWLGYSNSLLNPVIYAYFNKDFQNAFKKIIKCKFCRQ
Source text: as §1, with “• cAMP” for “cAMP”, “5-HT1A” for “D2S”, “serotonin,” for “dopamine,”
as §2, with “0.4×10^6” for “0.6×10^6”, “(2×10^3” for “(3×10^3”

[5] = biological target: T3, D2L receptor (Homo sapiens, UniProt P14416); test: D2L receptor cAMP agonist test; format: cell-based; details: HEK293 cell strain stably expressing D2L receptor; for pEC50: cAMP, forskolin 0.5 μM; for D2L Max Act %: positive control dopamine 1 μM
T3 construct: expressed in transfected cells
Procedure: as §1, with “• cAMP” for “cAMP”, “D2L” for “D2S”
• (1) The cryopreserved cells were thawed in a water bath at 37° C., the cell suspension was resuspended in HBSS buffer, and the mixed solution was centrifuged at 750 rpm for 5 min to remove the medium. The pellet was resuspended in an appropriate amount of experimental buffer, and an appropriate amount of cell suspension was diluted to 0.4×10^6 cells/mL. • (2) 5 μL of cell suspension was added to a ProxiPlate-384 well plate (2×10^3 cells/well), and the plate was centrifuged at 1000 rpm for 1 min. • (3) Test compounds were serially diluted in an experimental buffer, and 5 μL of the mixed solution was transferred to the reaction plate with Bravo.

T3 sequence (P14416 whole entry): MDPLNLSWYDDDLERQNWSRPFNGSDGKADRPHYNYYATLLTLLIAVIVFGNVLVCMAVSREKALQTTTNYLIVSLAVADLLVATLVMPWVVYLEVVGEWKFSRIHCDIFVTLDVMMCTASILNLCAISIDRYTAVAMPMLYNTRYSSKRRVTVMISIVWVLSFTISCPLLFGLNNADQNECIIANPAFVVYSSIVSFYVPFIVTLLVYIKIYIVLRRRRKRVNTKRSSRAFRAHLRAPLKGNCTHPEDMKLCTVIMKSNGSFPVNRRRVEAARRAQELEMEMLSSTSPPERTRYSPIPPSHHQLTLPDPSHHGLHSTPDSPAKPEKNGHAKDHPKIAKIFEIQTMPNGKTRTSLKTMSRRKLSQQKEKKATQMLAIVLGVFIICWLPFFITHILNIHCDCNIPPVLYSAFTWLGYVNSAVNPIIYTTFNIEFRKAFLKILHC
T1 sequence (P14416 1-414 isoform P14416-2): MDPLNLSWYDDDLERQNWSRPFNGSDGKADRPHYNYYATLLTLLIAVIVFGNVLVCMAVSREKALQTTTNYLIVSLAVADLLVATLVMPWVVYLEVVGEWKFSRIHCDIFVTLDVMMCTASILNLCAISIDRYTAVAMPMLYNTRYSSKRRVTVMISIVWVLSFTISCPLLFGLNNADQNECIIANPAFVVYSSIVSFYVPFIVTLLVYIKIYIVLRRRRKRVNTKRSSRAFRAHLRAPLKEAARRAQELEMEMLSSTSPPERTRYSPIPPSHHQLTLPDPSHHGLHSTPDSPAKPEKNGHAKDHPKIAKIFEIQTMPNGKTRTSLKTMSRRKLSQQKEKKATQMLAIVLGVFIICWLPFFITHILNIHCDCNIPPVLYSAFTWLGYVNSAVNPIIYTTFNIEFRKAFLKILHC
Sequence of 5-HT2A receptor (P28223 whole entry): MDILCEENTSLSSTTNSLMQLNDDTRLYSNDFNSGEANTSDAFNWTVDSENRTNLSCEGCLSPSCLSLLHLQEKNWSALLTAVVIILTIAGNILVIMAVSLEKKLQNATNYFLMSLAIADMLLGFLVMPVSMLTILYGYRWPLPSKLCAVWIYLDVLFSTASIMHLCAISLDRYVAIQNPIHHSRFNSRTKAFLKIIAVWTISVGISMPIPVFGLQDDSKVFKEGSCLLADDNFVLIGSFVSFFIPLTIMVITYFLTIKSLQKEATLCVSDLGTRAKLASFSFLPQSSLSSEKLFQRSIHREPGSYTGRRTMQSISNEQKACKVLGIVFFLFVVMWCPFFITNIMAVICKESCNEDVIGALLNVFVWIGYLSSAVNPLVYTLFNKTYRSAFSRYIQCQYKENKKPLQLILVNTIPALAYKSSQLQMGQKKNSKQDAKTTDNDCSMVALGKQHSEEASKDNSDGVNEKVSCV

| SMILES | half-life ([1]; 5 mg/kg, single dose 5 mg/kg) [h] | AUC(0-inf) ([1]; 5 mg/kg, single dose 5 mg/kg) [ng·h/mL] | Cmax ([1]; 5 mg/kg, single dose 5 mg/kg) [ng/mL] | pIC50 [2] | 5-HT2A Max Inh % [2] [%] | pEC50 [3] | D2S Max Act % [3] [%] | pEC50 [4] | 5-HT1A Max Act % [4] [%] | pEC50 [5] | D2L Max Act % [5] [%] | half-life ([1]; 3 mg/kg, single dose 3 mg/kg) [h] | AUC(0-inf) ([1]; 3 mg/kg, single dose 3 mg/kg) [ng·h/mL] | Cmax ([1]; 3 mg/kg, single dose 3 mg/kg) [ng/mL] |
| --- | --- | --- | --- | --- | --- | --- | --- | --- | --- | --- | --- | --- | --- | --- |
| O=C1Nc2cc(OCCCCN3CCN(c4cccc5sccc45)CC3)ccc2C2CC12 (centres unmarked) [Example 42, 5-(4-(4-(Benzo[b]thiophen-4-yl)piperazin-1-yl)butoxy)-1,1a,3,7b-tetrahydro-2H-cyclopropa[c]quinolin-2-one] | 13 | 11300 | 687 | 5.77 | 100.6 | 9.02 | 106.0 | 6.50 | 55.7 | 9.33 | 32.7 | – | – | – |
| O=C1Nc2cc(OCCCCN3CCN(c4cccc5c4CCO5)CC3)ccc2C2CC12 (centres unmarked) [Example 45, 5-(4-(4-(2,3-Dihydrobenzofuran-4-yl)piperazin-1-yl)butoxy)-1,1a,3,7b-tetrahydro-2H-cyclopropa c quinolin-2-one] | 6.1 | 9650 | 1160 | 6.34 | 100.1 | 9.03 | 105.6 | 6.60 | 54.7 | 9.36 | 41.3 | – | – | – |
| O=C1Nc2cc(OCCCCN3CCN(c4cccc5c4CC(F)(F)C5)CC3)ccc2C2CC12 (centres unmarked) [Example 46, 5-(4-(4-(2,2-Difluoro-2,3-dihydro-1H-inden-4-yl)piperazin-1-yl)butoxy)-1,1a,3,7b-tetrahydro-2H-cyclopropa[c]quinolin-2-one] | 15.2 | 17700 | 1200 | 5.63 | 91.6 | 9.03 | 114.3 | 6.45 | 62.6 | 9.40 | 43.4 | – | – | – |
| O=C1Nc2cc(OCCCCN3CCN(c4cccc5sc(Cl)cc45)CC3)ccc2C2CC12 (centres unmarked) [Example 49, 5-(4-(4-(2-Chlorobenzo[b]thiophen-4-yl)piperazin-1-yl)butoxy)-1,1a,3,7b-tetrahydro-2H-cyclopropa[c]quinolin-2-one] | – | – | – | 5.13 | 90.4 | 9.00 | 112.6 | 6.89 | 80.7 | 9.04 | 56.3 | 10.5 | 4780 | 420 |
